From patent publication US20260069539A1, “LIPIDOID COMPOUNDS AND RELATED COMPOSITIONS AND USES” (Poseida Therapeutics, Inc., priority 2023, published 2026)
One block for each compound: values may come before it.

What was measured:
liver cells [1] = experiment: In vivo LNP delivery of DNA encoding firefly luciferase, bioluminescent imaging (BLI) at 48 hr; parameters: species or system BALB/C mice; settings: for Total Flux: Example 103, 0.5 mg/kg DNA intravenous, BLI at 48 hr; for Mean Luciferase Flux: DNA encoding firefly luciferase, 48 hr
Protocol: Adult BALB/C mice (n=3) were administered 0.5 mg/kg of DNA encoding firefly luciferase (Nature Technology Corp) formulated in a LNP composition listed in Table 4. One group of mice was treated with vehicle (PBS, Thermo Fisher Scientific, USA) as a negative control.
(§1) The location and extent of luciferase expression in treated and control mice were determined at 48 hr for DNA delivery by bioluminescent imaging (BLI) of anesthetized mice using an IVIS Lumina in vivo imaging system (Perkin Elmer) according to the manufacturer's instructions. Briefly, mice were anesthetized using isoflurane in oxygen, and placed supine on a heated stage. Mice were then administered D-luciferin (Perkin-Elmer #122799) IP, and BLI was performed.
as §1, with “DNA” for “DNA delivery”, “performed. […]” for “performed.”
Body weight loss (BWL) measurements were taken at 24 hrs post administration and luciferase expression was measured by whole body luminescence imaging (BLI) at 48 hours post-administration. […]
Luciferase expression was measured by whole body luminescence imaging (BLI) at 48 hours post-administration.

[2] = Body weight change / body weight loss 24 hours post-administration of LNP; assay type: in vivo, BALB/C mice
Protocol: In addition, the body weight of mice treated with LNP compositions of the present disclosure prepared as described in Example 77 was assessed prior to intravenous administration and 24 hours post-administration and the body weights at baseline and post-treatment were compared.
In addition, the body weight of mice treated with LNP compositions of the present disclosure was assessed prior to intravenous administration and 24 hours post-administration and the body weights at baseline and post-treatment were compared.
Body weight loss (BWL) measurements were taken at 24 hrs post administration and luciferase expression was measured by whole body luminescence imaging (BLI) at 48 hours post-administration.
(§2) Blood was drawn from control and treated mice 4 hrs post-administration for cytokine analysis, body weight loss (BWL) measurements were taken at 24 hrs post administration and luciferase expression was measured by whole body luminescence imaging (BLI) at 48 hours post-administration.

liver cells [3] = experiment: In vivo LNP delivery of fLuciferase mRNA, bioluminescent imaging (BLI) at 4 hr; parameters: species or system BALB/C mice; settings: for Mean Luciferase Flux: 0.5 mg/kg fLuc mRNA i.v., 4 hr
Protocol: Adult female BALB/C mice (n=3/group) were intravenously administered 0.5 mg/kg of 5′-CleanCap—fLuciferase mRNA (TriLink Biotech) formulated with the LNP compositions shown in Table 6. One group of mice was treated with vehicle (PBS, Thermo Fisher Scientific, USA) as a negative control.
as §1, with “determined at 4 hr for mRNA and 48 hr” for “determined at 48 hr”, “for DNA by bioluminescent” for “for DNA delivery by bioluminescent”
as §1, with “4” for “48”, “hr” for “hr for DNA delivery”
as §1, with “4” for “48”, “hr” for “hr for DNA delivery”
The location and extent of luciferase expression in treated and control mice were determined at 4 hr by bioluminescent imaging (BLI) of anesthetized mice using an IVIS Lumina in vivo imaging system (Perkin Elmer) according to the manufacturer's instructions.
Briefly, mice were anesthetized using isoflurane in oxygen, and placed supine on a heated stage. Mice were then administered D-luciferin (Perkin-Elmer #122799) IP, and BLI was performed.
as §1, with “4” for “48”, “hr” for “hr for DNA delivery”

pcsk9 protein = experiment: Serum Pcsk9 ELISA 7 days after LNP delivery of Cas-CLOVER mRNA and pcsk9 gRNAs (in vivo gene editing); parameters: species or system mouse; settings: serum 7 days
Protocol: In two separate experiments, each group of adult female BALB/C mice (n=2/group) was intravenously co-administered mRNA encoding 5′-CleanCap-5MeC-Cas-CLOVER (SEQ ID NO: 5) and a pair of gRNAs (SEQ ID NOs: 6 and 7) targeted to the first exon of the mouse pcsk9 gene.
After seven days post-administration, blood samples were drawn from the subjects. Briefly, 500 μL of blood was collected after euthanasia via cardiac puncture using 2 ml syringes and 25G needles, transferred to microcentrifuge tubes, incubated at room temperature for 1 hour, and centrifuged at 1500 g for 15 minutes to separate the cellular fraction from serum. Serum fraction (200 μL) was transferred to a new tube and stored at −80C until further analysis.
Serum levels of the pcsk9 protein in the mice were measured 7 days after administration. Results are shown in Table 23 for the first experiment and Table 24 for the second experiment. Briefly, a mouse Pcsk9 ELISA kit (Biolegend) was used to determine Pcsk9 in each serum sample following manufacturer's instructions. All serum samples were assayed in triplicate and results were expressed as percentage in Pcsk9 levels compared with Pcsk9 levels of PBS-treated mice.

[4] = tested on: proinflammatory cytokines IL-6, INF-G, TNF-α, MCP-1, MIP-1a/MIP-1b; experiment: Serum proinflammatory cytokine levels (ELISA) 4 hours after LNP administration; assay type: in vivo, BALB/C mice; settings: 0.5 mg/kg fLuc mRNA i.v., serum at 4 hours
Protocol: The levels of five proinflammatory cytokines present in serum were evaluated at 4 hours after LNP administration for each of the tested concentrations. Briefly, serum samples were prepared as described for liver enzyme analysis and the serum concentration of each cytokine was determined using commercially available ELISA kits (e.g., R&D Systems Quantikine ELISA kits). The levels of the proinflammatory cytokines interleukin-6 (IL-6), interferon gamma (INF-G), tumor necrosis factor alpha (TNF-α), monocyte chemoattractant protein-1 (MCP-1), macrophage inflammatory protein-1 alpha (MIP-1a) in mice treated with LNPs of the present disclosure compared to vehicle treated mice at 4 hours are shown in Table 18.
(§3) The levels of five proinflammatory cytokines present in serum were evaluated at 4 hours after LNP administration as described in Example 81. The levels of the proinflammatory cytokines interleukin-6 (IL-6), interferon gamma (INF-G), tumor necrosis factor alpha (TNF-a), monocyte chemoattractant protein-1 (MCP-1), macrophage inflammatory protein-1 beta (MIP-1b) in mice treated with LNPs of the present disclosure are shown in Table 35.
as §3, with “38 and Table 39.” for “35.”
as §3, with “(TNF-α),” for “(TNF-a),”, “44.” for “35.”
as §2

[5] = LNP with 43.17 % moles of the compound (DOPC 11.96/Chol 43.17/PEG-DMG 1.7, Lipid:DNA 80)
[6] = LNP with 50 % moles of the compound (DOPC 10/Chol 38.5/PEG-DMG 1.5, Lipid:DNA 80)
[7] = DNA LNP with 43.17 % moles of the compound
[8] = DNA LNP with 50 % moles of the compound
[9] = Table 14 experiment, LNP with 43.17 % moles of the compound (Lipid:RNA 80)
[10] = Table 14 experiment, LNP with 50 % moles of the compound (Lipid:RNA 80)
[11] = LNP with 40.8 (40.75) % moles Compound No. 40
[12] = LNP with 50 % moles Compound No. 40

Compound: CCCCC[C@H]1CC[C@H](C(=O)OCC(COC(=O)CCCCCN(CCO)CCCCCC(=O)COC(COC(=O)[C@H]2CC[C@H](CCCCC)CC2)COC(=O)[C@H]2CC[C@H](CCCCC)CC2)COC(=O)[C@H]2CC[C@H](CCCCC)CC2)CC1 [COMPOUND NO. 36]
Total Flux (liver cells [1]; LNP with 10% DOPC): 7.52E+07 p/s
Total Flux (liver cells [1]; LNP with 10% DSPC): 1.23E+08 p/s
Mean Luciferase Flux (liver cells [1]; [5]): 7.99E+07 p/s
Mean Luciferase Flux (liver cells [1]; [6]): 1.82E+08 p/s
% body weight change [2, 7]: −4.9%
% body weight change [2, 8]: −6.7%
RNA delivery potency (liver cells [3]; 0.5 mg/kg fLuciferase mRNA in LNP, BLI at 4 hr): RNA delivery potency increases with increasing number of cyclohexyl-substituted tails
Total Flux (liver cells [3]; Example 104, experiment of Table 64, 0.5 mg/kg fLuciferase mRNA intravenous, BLI at 4 hr): 3.25E+11 p/s
Mean Luciferase Flux (liver cells [3]; [9]): 1.31E+11 p/s
Mean Luciferase Flux (liver cells [3]; [10]): 1.19E+11 p/s

Compound: CCCCC[C@H]1CC[C@H](C(=O)OCC(COC(=O)CCCCCN(CCCO)CCCCCC(=O)COC(COC(=O)[C@H]2CC[C@H](CCCCC)CC2)COC(=O)[C@H]2CC[C@H](CCCCC)CC2)COC(=O)[C@H]2CC[C@H](CCCCC)CC2)CC1 [COMPOUND NO. 37]
% Pcsk9 compared to control (pcsk9 protein; DSPC:DOPC molar ratio 5%:5% in LNP, 0.5 mg/kg, lipid:RNA 80:1): 50.4%
% Pcsk9 compared to control (pcsk9 protein; DSPC:DOPC molar ratio 10%:0% in LNP, 0.5 mg/kg, lipid:RNA 80:1): 39.7%
% Pcsk9 compared to control (pcsk9 protein; LNP dose 0.5 mg/kg, COMPOUND NO. 37:DOPC:Cholesterol:DMG-PEG2000 50:10:38.5:1.5, lipid:RNA 80:1): 40.6%
% Pcsk9 compared to control (pcsk9 protein; LNP dose 1.0 mg/kg, COMPOUND NO. 37:DOPC:Cholesterol:DMG-PEG2000 50:10:38.5:1.5, lipid:RNA 80:1): 23.8%
Total Flux (liver cells [1]; LNP with 10% DOPC): 7.64E+07 p/s
Total Flux (liver cells [1]; LNP with 10% DSPC): 1.58E+08 p/s
Mean Luciferase Flux (liver cells [1]; [5]): 5.80E+07 p/s
Mean Luciferase Flux (liver cells [1]; [6]): 1.28E+08 p/s
% body weight change [2, 7]: −6.0%
% body weight change [2, 8]: −10.7%
Mean Luciferase Flux (liver cells [3]; [9]): 3.49E+11 p/s
Mean Luciferase Flux (liver cells [3]; [10]): 3.55E+11 p/s

IL-6 cytokine fold changes in treated mice relative to untreated mice [4, 11]: 0.4 fold
INF-G cytokine fold changes in treated mice relative to untreated mice [4, 11]: 1.5 fold
MCP-1 cytokine fold changes in treated mice relative to untreated mice [4, 11]: 1.6 fold
MIP-1a cytokine fold changes in treated mice relative to untreated mice [4, 11]: 1.4 fold
TNF-a cytokine fold changes in treated mice relative to untreated mice [4, 11]: 1.0 fold
IL-6 cytokine fold changes in treated mice relative to untreated mice [4, 12]: 0.6 fold
INF-G cytokine fold changes in treated mice relative to untreated mice [4, 12]: 2.0 fold
MCP-1 cytokine fold changes in treated mice relative to untreated mice [4, 12]: 5.2 fold
MIP-1a cytokine fold changes in treated mice relative to untreated mice [4, 12]: 3.8 fold
TNF-a cytokine fold changes in treated mice relative to untreated mice [4, 12]: 1.1 fold
Compound: CCCCCC(=O)OCC1CCC(COC(=O)C(CCCN(CCO)CCCC(C(=O)OCC2CCC(COC(=O)CCCCC)CC2)C(=O)OCC2CCC(COC(=O)CCCCC)CC2)C(=O)OCC2CCC(COC(=O)CCCCC)CC2)CC1 (stereo not drawn) [COMPOUND NO. 40]
% body weight change ([2]; LNP with 40.75 % moles of the compound, fLuc mRNA 0.5 mg/kg i.v.): −5.5%
% body weight change ([2]; LNP with 50 % moles of the compound, fLuc mRNA 0.5 mg/kg i.v.): −2.0%
Mean Luciferase Flux (liver cells [3]; Table 15 experiment, LNP with 40.75 % moles of the compound (Lipid:RNA 80)): 2.20E+10 p/s
Mean Luciferase Flux (liver cells [3]; Table 15 experiment, LNP with 50 % moles of the compound (Lipid:RNA 80)): 1.02E+11 p/s
